The subject of series [1] is rat. The conditions noted are these: Multigenerational reproductive toxicity study, wistar, Oral, Feed, dose end: 4 generation.
The test system of series [2] is mouse. The following applies: Combined chronic toxicity/carcinogenicity, cd1, Oral, Feed, dose end: 24 month.
Series [3] concerns rat. The conditions noted are these: Prenatal developmental toxicity study, sprague dawley, Oral, Gavage/Intubation, dose end: 19 GD.
Series [4] has as its system rat. The conditions noted are these: Combined chronic toxicity/carcinogenicity, other, Oral, Feed, dose end: 105 week.
The test system of series [5] is mouse. The conditions noted are these: Carcinogenicity, b6c3f1, Oral, Feed, dose end: 104 week.
In series [6] the test system is mouse. The following applies: Combined chronic toxicity/carcinogenicity, b6c3f1, Oral, Feed, dose end: 2 year.
In a further series the test system is dog. The following applies: Subchronic oral toxicity in nonrodent, beagle, Capsule, dose end: 5 month.
For series [7], the system named is rat. The conditions noted are these: Multigenerational reproductive toxicity study, other, Oral, Feed, dose end: 2 generation.
Series [8] concerns mouse. The following applies: Prenatal developmental toxicity study, cd1, Oral, Gavage/Intubation, dose end: 15 GD.
Series [9] deals with rabbit. The following applies: Prenatal developmental toxicity study, new zealand white, Oral, Gavage/Intubation, dose end: 19 GD.
Series [10] deals with rat. The conditions noted are these: Prenatal developmental toxicity study, wistar, Oral, Gavage/Intubation, dose end: 15 GD.
The subject of series [11] is rabbit. The following applies: Prenatal developmental toxicity study, new zealand white, Oral, Gavage/Intubation, dose end: 19 GD. This is another data set of the same source.
Series [12] deals with rat. The conditions noted are these: Prenatal developmental toxicity study, sprague dawley, Oral, Gavage/Intubation, dose end: 15 GD.
Setting [13] is: group: offspring, developmental / developmental malformation / bone / absent + developmental / developmental malformation / bone / incomplete ossification + ….
The mark [14] stands for this setting: group: offspring, systemic / in life observation / body weight / offspring (pup) weight gain.
Where [15] appears, read: group: parental, systemic / in life observation / body weight / body weight gain.
Setting [16] is: group: reproductive, reproductive / reproductive performance / fertility / fertility + reproductive / reproductive performance / pregnancy / pregnancy.
The mark [17] stands for this setting: group: reproductive, reproductive / reproductive performance / fertility / fertility + reproductive / reproductive performance / pregnancy / pregnancy + ….
The mark [18] stands for this setting: group: cholinesterase, cholinesterase / cholinesterase / cholinesterase / brain cholinesterase (che).
Where [19] appears, read: group: cholinesterase, cholinesterase / cholinesterase / cholinesterase / brain cholinesterase (che) + cholinesterase / cholinesterase / cholinesterase / plasma ….
The mark [20] stands for this setting: group: systemic, systemic / pathology microscopic / liver / adenoma + systemic / pathology gross / liver / mass.
Setting [21] is: group: systemic, systemic / pathology microscopic / liver / adenoma + systemic / pathology microscopic / liver / adenoma/carcinoma combined + systemic / ….
Where [22] appears, read: group: developmental, developmental / developmental malformation / bone / bipartite ossification + developmental / developmental malformation / bone / ….
Where [23] appears, read: group: maternal, systemic / in life observation / body weight / body weight + systemic / in life observation / clinical signs / abnormal gait + systemic / in….
[24] abbreviates: group: cholinesterase, cholinesterase / cholinesterase / cholinesterase / brain cholinesterase (che) + cholinesterase / cholinesterase / cholinesterase / ….
Where [25] appears, read: group: systemic, systemic / hematology / erythrocyte (rbc) count differential / erythrocyte (rbc) + systemic / hematology / hematocrit (hct) / hematocrit (….
Setting [26] is: group: cholinesterase, cholinesterase / cholinesterase / cholinesterase / erythrocyte cholinesterase (che) + cholinesterase / cholinesterase / cholinesterase / ….
Where [27] appears, read: group: systemic, systemic / organ weight / lung / absolute.
The mark [28] stands for this setting: group: systemic, systemic / in life observation / body weight / body weight gain + systemic / pathology microscopic / kidney / regeneration.
Where [29] appears, read: group: cholinesterase, cholinesterase / cholinesterase / cholinesterase / plasma cholinesterase (che).
The mark [30] stands for this setting: group: cholinesterase, cholinesterase / cholinesterase / cholinesterase / plasma cholinesterase (che) + cholinesterase / cholinesterase / cholinesterase / brain ….
Setting [31] is: group: systemic, systemic / in life observation / clinical signs / soft stools.
[32] abbreviates: group: offspring, systemic / pathology microscopic / ureter / hyperplasia.
Setting [33] is: group: parental, systemic / in life observation / clinical signs / motor activity.
Setting [34] is: group: developmental, developmental / developmental malformation / bone / exencephaly + developmental / developmental malformation / bone / fused + developmental….
The mark [35] stands for this setting: group: maternal, reproductive / reproductive performance / postimplantation loss / postimplantation loss + systemic / in life observation / body weight / ….
[36] abbreviates: group: developmental, developmental / developmental malformation / bone / [other] + developmental / developmental malformation / bone / absent + developmental / ….
The mark [37] stands for this setting: group: developmental, developmental / developmental malformation / general / [other].
[38] abbreviates: group: maternal, systemic / in life observation / body weight / body weight + systemic / in life observation / food consumption / food consumption.
[39] abbreviates: group: developmental, systemic / in life observation / body weight / fetal weight.
The mark [40] stands for this setting: group: maternal, reproductive / reproductive performance / implantations / implantations + systemic / in life observation / body weight / body weight gain + ….
Setting [41] is: group: maternal, systemic / in life observation / body weight / body weight + systemic / in life observation / body weight / body weight gain + systemic / in….

Consider `CC(O)CCO` (stereo not drawn) [1,3-Butanediol], for which the LOAEL in the series on rat [1] (setting [13]), in the series with rat [1] (setting [15]) and in the series on rat [1] (setting [17]) was greater than 12000 mg/kg/day throughout. The NOAEL in the series on rat [1] (setting [13]), with rat [1] (setting [15]) and in the series on rat [1] (setting [17]) was no less than 12000 mg/kg/day in each case. For the same compound, the LEL in the series with rat [1] (setting [14]), in the series on rat [1] (setting [15]) and in the series with rat [1] (setting [16]) was 2500 mg/kg/day in each case. Besides, the NEL with rat [1] (setting [14]), in the series on rat [1] (setting [15]) and with rat [1] (setting [16]) was less than 2500 mg/kg/day in each case.
Take `COc1nn(CSP(=S)(OC)OC)c(=O)s1` [Methidathion]: the LEL in the series on mouse [2] (setting [18]) was 1.6 mg/kg/day; with mouse [2] (setting [20]), 0.46 mg/kg/day. For the same compound, the LOAEL with mouse [2] (setting [18]) and in the series on mouse [2] (setting [21]) was 7.5 mg/kg/day throughout. Moreover, the NEL in the series on mouse [2] (setting [19]) is 0.46 mg/kg/day; in the series with mouse [2] (setting [20]) it was less than 0.46 mg/kg/day. The NOAEL in the series with mouse [2] (setting [19]) and with mouse [2] (setting [21]) was 1.6 mg/kg/day each time.
Take `OC(CCl)CCl` [1,3-Dichloro-2-propanol]: in the series with rat [3] (setting [22]), the LEL is 90 mg/kg/day, the LOAEL was greater than 90 mg/kg/day, the NEL was determined as 30 mg/kg/day and the NOAEL is no less than 90 mg/kg/day. In the series on rat [3] (setting [23]), the LOAEL is greater than 90 mg/kg/day, the NEL was determined as 10 mg/kg/day and the NOAEL was no less than 90 mg/kg/day. Further, the LEL with rat [3] (group: maternal, systemic / in life observation / clinical signs / motor activity + systemic / in life observation / food consumption / food consumption + …) is 30 mg/kg/day.
For the compound `CCCSP(=O)(OCC)SCCC` [Ethoprop], the LEL was 3 mg/kg/day in the series with rat [4] (setting [24]); 20 mg/kg/day in the series on rat [4] (setting [25]); 0.254 mg/kg/day in the series on mouse [5] (setting [26]); 0.032 mg/kg/day with mouse [5] (setting [27]); 0.306 mg/kg/day in the series on mouse [6] (setting [26]); 0.306 mg/kg/day with mouse [6] (group: systemic, systemic / pathology microscopic / kidney / regeneration). The LEL with dog (setting [29]) and in the series on dog (setting [31]) was 0.025 mg/kg/day in each case. Moreover, the LOAEL in the series on rat [4] (setting [24]) came to 3 mg/kg/day; with rat [4] (setting [25]), 20 mg/kg/day; with mouse [5] (setting [26]) it was 0.254 mg/kg/day; in the series with mouse [5] (group: systemic, systemic / in life observation / body weight / body weight + systemic / in life observation / body weight / body weight gain), 3.96 mg/kg/day; in the series on mouse [6] (setting [26]) it was 0.306 mg/kg/day; with mouse [6] (group: systemic, systemic / in life observation / body weight / body weight gain) it was 4.44 mg/kg/day. The lowest observed adverse effect level (LOAEL) in the series with dog (setting [29]) was 0.025 mg/kg/day; with dog (setting [31]), greater than 1 mg/kg/day. Besides, the NEL with rat [4] (setting [24]) was 0.05 mg/kg/day; in the series on rat [4] (group: systemic, systemic / organ weight / kidney / relative to body weight + systemic / organ weight / thyroid gland / relative to body weight) it was 3 mg/kg/day; with mouse [5] (setting [26]) it was 0.026 mg/kg/day; with mouse [5] (setting [27]), less than 0.032 mg/kg/day; with mouse [6] (setting [26]), 0.032 mg/kg/day; in the series on mouse [6] (setting [28]), 0.032 mg/kg/day. In addition, the NEL with dog (setting [30]) and with dog (setting [31]) was 0.01 mg/kg/day throughout. The NOAEL in the series on rat [4] (setting [24]) was 0.05 mg/kg/day; in the series on rat [4] (setting [25]), 3 mg/kg/day; in the series on mouse [5] (setting [26]), 0.026 mg/kg/day; in the series with mouse [5] (group: systemic, systemic / in life observation / body weight / body weight + systemic / in life observation / body weight / body weight gain + systemic / in…), 0.254 mg/kg/day; with mouse [6] (setting [26]) it was 0.032 mg/kg/day; in the series with mouse [6] (setting [28]) it was 0.306 mg/kg/day. The NOAEL with dog (setting [30]) is 0.01 mg/kg/day; in the series on dog (setting [31]) it was no less than 1 mg/kg/day.
In the series with rat [7] (setting [32]), `COc1cc(OC)nc(NC(=O)NS(=O)(=O)Nc2ccccc2C(=O)N(C)C)n1` [Orthosulfamuron] showed an LEL of 765 mg/kg/day, an LOAEL greater than 765 mg/kg/day, an NEL of 205 mg/kg/day and an NOAEL of no less than 765 mg/kg/day. Further, in the series on rat [7] (setting [33]), the LEL came to 635 mg/kg/day, the LOAEL was 635 mg/kg/day, the NEL turned out to be 145 mg/kg/day and the NOAEL amounted to 145 mg/kg/day.
Take `CCOCCOCC` [Ethylene glycol diethyl ether]: the LEL in the series on mouse [8] (setting [34]) was found to be 500 mg/kg/day; in the series with mouse [8] (setting [35]) it was 1000 mg/kg/day; with rabbit [9] (setting [36]), 100 mg/kg/day; in the series on rabbit [9] (setting [35]) it was 100 mg/kg/day. Also, the LOAEL is greater than 1000 mg/kg/day with mouse [8] (setting [34]), greater than 1000 mg/kg/day in the series with mouse [8] (setting [35]), greater than 100 mg/kg/day with rabbit [9] (setting [36]) and greater than 100 mg/kg/day in the series on rabbit [9] (setting [35]). Besides, the NEL with mouse [8] (setting [34]) is 150 mg/kg/day; in the series on mouse [8] (setting [35]), 500 mg/kg/day; in the series with rabbit [9] (setting [36]) it was 50 mg/kg/day; in the series on rabbit [9] (setting [35]), 50 mg/kg/day. The NOAEL in the series on mouse [8] (setting [34]) was no less than 1000 mg/kg/day; in the series on mouse [8] (setting [35]) it was no less than 1000 mg/kg/day; with rabbit [9] (setting [36]), no less than 100 mg/kg/day; with rabbit [9] (setting [35]), no less than 100 mg/kg/day.
As to `OCC#CCO` [2-Butyne-1,4-diol], in the series on rat [10] (setting [37]), the LEL came out at 80 mg/kg/day, the LOAEL was greater than 80 mg/kg/day, the NEL amounted to 40 mg/kg/day and the NOAEL is no less than 80 mg/kg/day. For the same compound, in the series on rat [10] (setting [38]), the LEL is 80 mg/kg/day, the LOAEL is greater than 80 mg/kg/day, the NEL worked out at 40 mg/kg/day and the NOAEL is no less than 80 mg/kg/day.
For `CN(C)c1ccc(C(=C2C=CC(=[N+](C)C)C=C2)c2ccc(N(C)C)cc2)cc1.[Cl-]` [Gentian Violet], the LEL in the series with rabbit [11] (setting [39]) was found to be 0.5 mg/kg/day; in the series on rabbit [11] (setting [40]) it was 0.5 mg/kg/day; with rat [12] (setting [37]), 10 mg/kg/day; in the series on rat [12] (group: maternal, systemic / in life observation / body weight / body weight gain), 5 mg/kg/day. The LOAEL with rabbit [11] (setting [39]) was greater than 2 mg/kg/day; in the series on rabbit [11] (setting [40]), greater than 2 mg/kg/day; in the series with rat [12] (setting [37]), greater than 10 mg/kg/day; in the series with rat [12] (setting [41]), greater than 10 mg/kg/day. In addition, the NEL in the series with rabbit [11] (setting [39]) was less than 0.5 mg/kg/day; with rabbit [11] (setting [40]) it was less than 0.5 mg/kg/day; in the series with rat [12] (setting [37]) it was 5 mg/kg/day; with rat [12] (setting [41]), 2.5 mg/kg/day. In addition, the NOAEL is no less than 2 mg/kg/day in the series with rabbit [11] (setting [39]), no less than 2 mg/kg/day with rabbit [11] (setting [40]), no less than 10 mg/kg/day in the series on rat [12] (setting [37]) and no less than 10 mg/kg/day in the series with rat [12] (setting [41]).

In general, LOAEL refers to the lowest dose or exposure tested at which an adverse effect was seen. By NOAEL is commonly meant the highest tested level that showed no adverse finding.

The values above are taken from EPA's ToxRefDB 2.
